Like-named read-outs stand apart in the source and are kept apart here.
How the values were obtained:
HepG2 cells = assay: HepG2 cytotoxicity counter-screen; conditions: cytotoxic activity against HepG2 cells
[1] = tested on: P. falciparum male gametocytes; assay: P. falciparum Dual Gamete Formation Assay (PfDGFA), male readout (exflagellation); assay type: cell-based, Plasmodium falciparum NF54; conditions: for Selectivity Ratio M: HepG2 Tox50 versus male IC50; for IC50: PfDGFA, 24 h incubation with gametocytes before induction, exflagellation readout, read-out: Male IC50; for HitlevelM: number of replicates with >50% inhibition in the male readout
Method in brief: (§1)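 Day-14 NF54 gametocytes were incubated with compound for 24 h at 37°C under 1% O2/3% CO2/96% N2. Gametogenesis was triggered with ookinete medium (0.1 μM xanthurenic acid) plus Cy3-anti-Pfs25, and exflagellation was imaged by brightfield after cooling to 4°C then 28°C. Females were imaged by Pfs25 fluorescence 24 h later at 28°C.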

[2] = tested on: P. falciparum female gametocytes; assay: P. falciparum Dual Gamete Formation Assay (PfDGFA), female readout (Pfs25-positive female gametes); assay type: cell-based, Plasmodium falciparum NF54; conditions: for Selectivity ratio F: HepG2 Tox50 versus female IC50; for IC50: PfDGFA, 24 h incubation with gametocytes before induction, female gamete readout, read-out: Female IC50; for HitlevelF: number of replicates with >50% inhibition in the female readout
Method in brief: as §1

[3] = 2µM, 24h preincubation with gametocytes, average of replicates
[4] = 2µM, 24h preincubation with gametocytes, replicate R1
[5] = 2µM, 24h preincubation with gametocytes, replicate R3
[6] = 2µM, 24h preincubation with gametocytes, replicate R4
[7] = PfDGFA at 2µM, 24h preincubation with gametocytes, average of replicates
[8] = PfDGFA at 2µM, 24h preincubation with gametocytes, replicate R1
[9] = PfDGFA at 2µM, 24h preincubation with gametocytes, replicate R3
[10] = PfDGFA at 2µM, 24h preincubation with gametocytes, replicate R4
[11] = 2µM, 24h preincubation with gametocytes prior to induction of gametogenesis, average of replicates
[12] = 2µM, 24h preincubation with gametocytes prior to induction of gametogenesis, replicate R1
[13] = 2µM, 24h preincubation with gametocytes prior to induction of gametogenesis, replicate R3
[14] = 2µM, 24h preincubation with gametocytes prior to induction of gametogenesis, replicate R4

SMILES	Tox50 (HepG2 cells) [µM]	Selectivity Ratio M [1]	Selectivity ratio F [2]	Average inhibition male (%) [1, 3] [%]	% inhibition male (individual replicates) R1 [1, 4] [%]	% inhibition male (individual replicates) R3 [1, 5] [%]	% inhibition male (individual replicates) R4 [1, 6] [%]	IC50 [1] [µM]	Average inhibition female (%) [2, 3] [%]	% inhibition female (individual replicates) R1 [2, 4] [%]	% inhibition female (individual replicates) R3 [2, 5] [%]	% inhibition female (individual replicates) R4 [2, 6] [%]	IC50 [2] [µM]	other results
Cl.O=C1Nc2ccc3ncccc3c2/C1=C/Nc1ccc(N2CCN(CCO)CC2)cc1 [TCMDC-138634]	33.87	229.28	3.39											inhibition at 2 µM ([1]; Plasmodium falciparum, 2µM, 24h preincubation with gametocytes, average of replicates, read-out: Average inhibition male (%)): 92.8%; inhibition at 2 µM ([1]; Plasmodium falciparum, 2µM, 24h preincubation with gametocytes, replicate R1, read-out: % inhibition male (individual replicates) R1): 89.8%; inhibition at 2 µM ([1]; Plasmodium falciparum, 2µM, 24h preincubation with gametocytes, replicate R2, read-out: % inhibition male (individual replicates) R2): 91.5%; inhibition at 2 µM ([1]; Plasmodium falciparum, 2µM, 24h preincubation with gametocytes, replicate R3, read-out: % inhibition male (individual replicates) R3): 89.7%; inhibition at 2 µM ([1]; Plasmodium falciparum, 2µM, 24h preincubation with gametocytes, replicate R4, read-out: % inhibition male (individual replicates) R4): 100%; IC50 ([1]; Plasmodium falciparum): 0.15 µM; inhibition at 2 µM ([2]; Plasmodium falciparum, 2µM, 24h preincubation with gametocytes, average of replicates, read-out: Average inhibition female (%)): -7.8%; inhibition at 2 µM ([2]; Plasmodium falciparum, 2µM, 24h preincubation with gametocytes, replicate R1, read-out: % inhibition female (individual replicates) R1): -5.3%; inhibition at 2 µM ([2]; Plasmodium falciparum, 2µM, 24h preincubation with gametocytes, replicate R2, read-out: % inhibition female (individual replicates) R2): -7.3%; inhibition at 2 µM ([2]; Plasmodium falciparum, 2µM, 24h preincubation with gametocytes, replicate R3, read-out: % inhibition female (individual replicates) R3): -18.8%; inhibition at 2 µM ([2]; Plasmodium falciparum, 2µM, 24h preincubation with gametocytes, replicate R4, read-out: % inhibition female (individual replicates) R4): 0.25%; IC50 ([2]; Plasmodium falciparum): > 10 µM
C=CC(C)C1OC(=O)c2cc(OC)cc(OC)c21 (stereo not drawn) [TCMDC-138676]	1.57	2.76	1.37	100.2	101.1	101.1	99.6	0.57	94.9	92.0	102.0	91.3	1.15	
C=CCC1OC(=O)c2cc(OC)cc(OC)c21 (stereo not drawn) [TCMDC-138677]	2.57	2.21	1.43	100.4	99.9	100.4	100.2	1.16	52.4	41.8	47.5	59.2	1.8	
COc1cc2nc(N3CCC(CNC(=O)c4ccc(-c5ccc(Cl)cc5)cc4)CC3)nc(N)c2cc1OC [TCMDC-138718]	6.93	3.57	3.36					1.94					2.06	Average inhibition male (%) [1, 7]: 79.1%; % inhibition male (individual replicates) R1 [1, 8]: 85.4%; % inhibition male (individual replicates) R3 [1, 9]: 66.5%; % inhibition male (individual replicates) R4 [1, 10]: 84.2%; HitlevelM ([1]; 2µM): 4; Average inhibition female (%) [2, 7]: 49.0%; % inhibition female (individual replicates) R1 [2, 8]: 33.3%; % inhibition female (individual replicates) R3 [2, 9]: 38.5%; % inhibition female (individual replicates) R4 [2, 10]: 37.2%; HitlevelF ([2]; 2µM): 1
COc1cc2nc(N3CCC(CNC(=O)c4ccc(-c5ccc(-c6noc(C)n6)cc5)cc4)CC3)nc(N)c2cc1OC [TCMDC-138754]	3.68	6	6.02	99.2	101.8	98.0	96.9	0.61	48.8	31.8	47.5	53.9	0.61	
COc1cc2nc(N3CCC(CNCc4ccc(-c5ccc(C(F)(F)F)cc5)cc4)CC3)nc(N)c2cc1OC [TCMDC-138757]	2.05	9.29	8.75	97.9	97.9	96.8	99.6	0.22	59.1	32.6	30.7	89.8	0.23	
Cl.Clc1ccc(OCCC2CCN(CCCCCCCN3CCC(CCOc4ccc(Cl)c(Cl)c4)CC3)CC2)cc1Cl [TCMDC-138967]	3.36	2.82	1.93	95.6	93.1	96.8	99.1	1.19	87.8	88.3	97.6	78.8	1.74	
COc1ccc(NC(=O)c2ccc(OCCCCCCCOc3ccc(C(=O)Nc4ccc(OC)c(N5CCN(C)CC5)c4)cc3)cc2)cc1N1CCN(C)CC1.O=C(O)C(=O)O [TCMDC-139007]	3.94	4.37	2.96	92.9	92.7	82.0	95.6	0.9	47.5	33.2	33.3	62.1	1.33	
COc1ccc(NC(=O)c2cccc(Br)c2)cc1N1CCN(CCCCCCCN2CCN(c3cc(NC(=O)c4cccc(Br)c4)ccc3OC)CC2)CC1.Cl [TCMDC-139020]	7.95	4	4.34					1.98					1.83	Average inhibition male (%) [1, 11]: 30.8%; % inhibition male (individual replicates) R1 [1, 12]: 35.3%; % inhibition male (individual replicates) R3 [1, 13]: 36.0%; % inhibition male (individual replicates) R4 [1, 14]: 43.4%; HitlevelM ([1]; 2µM, 24h preincubation): 0; Average inhibition female (%) [2, 11]: 52.2%; % inhibition female (individual replicates) R1 [2, 12]: 51.4%; % inhibition female (individual replicates) R3 [2, 13]: 52.5%; % inhibition female (individual replicates) R4 [2, 14]: 56.9%; HitlevelF ([2]; 2µM, 24h preincubation): 3
